Measured values reported in US6384043B1, “Methods of alleviating pain sensations of the denuded eye with opioid analgesics” (priority 1993, dated 2002).
Where a name gives a salt, the structure may show the parent alone. Read-outs that look alike come from different tables or passages of the source.

Tests used:
[1] = system: corneal epithelial cell regeneration in pigmented rabbits; assay: Toxicity test: corneal re-epithelialization (wound healing) after mechanical removal of epithelial cells; settings: for Animals with complete healing of the cornea / total animals per group: 2 drops at 4 hourly intervals for 6 days
Description: Healthy pigmented rabbits weighing about 1.5-2.2 kg were anesthetized and then corneal epithelial cells were scraped and removed using a blade under direct view of a microscope. The basal lamina was left intact while thorough de-epithelialization was performed and confirmed by staining the surface of the cornea with 1% fluorescein. […] Eyes in each group were instilled with two drops of the corresponding solution at 4 hourly intervals for 6 consecutive days. Wound healing (corneal re-epithelialization) was assessed on days 2, 3, 4, 5, 6, 7, and 8 following corneal abrasion using fluorescein staining with Fluor-I-Strip, and epithelial regeneration and migration were monitored by clinical examinations as well as wound surface area measurements.

[2] = system: pain scores following knee surgery; settings: applied locally inside the joints following knee surgery; cited from earlier work
[3] = system: corneal sensitivity of patients with corneal abrasion or after a refractive procedure; settings: 2 drops topical, morphine 0.5 mg/ml, mean ± SEM
Description: The following describes analgesic tests which were performed on patients following topical application of the prepared and previously described topical ophthalmic analgesic formulation. […] Five patients were selected to participate in this study. In all cases, three measurements were made in the following fashion: First, a baseline response (corneal sensitivity) was established by determining the response of the patient eye to a standard pain pressure using a Cochet Bonnet Aesthesiometer instrument and without applying any drug. Measurements were made by beginning with the nylon monofilament (0.12 mm diameter) fully extended. The tip was applied perpendicularly to the corneal surface and gently pressed until the fiber's first visible bending. […] The length was then recorded in units of mm. Second, a saline solution (2 drops) were instilled in the eye and at 10 and 20 minutes later the response of the patient's cornea to pain pressure was determined as described above. These repeated measurements served as a placebo effect for comparison purposes.
Again, an Aesthesiometer, based upon the principle of pressure transmitted axially by a nylon monofilament of known diameter but of variable length for a given bending stress, was applied to the corneal surface. […] The distance, in millimeters (mm) of the nylon monofilament is recorded and then converted to pressure in gram/square millimeter.

[4] = system: pupil of morphine-dependent subject; settings: applied topically to one eye of a morphine-dependent subject; cited from earlier work

## CCCOc1ccc(C(=O)OCCN(CC)CC)cc1N [Alcaine, proparacaine HCl]
[1]; pigmented, rabbit, in vivo
  Complete regeneration / wound healing by: ≤ 8 days
[1]; rabbit, in vivo
  Day on which eyes began to show epithelial regeneration: third day
  Effect of repeated topical application on corneal epithelial cell regeneration and migration: significantly prevented regeneration

## CN1CC[C@]23c4c5ccc(O)c4O[C@H]2[C@@H](O)C=C[C@H]3[C@H]1C5.O=S(=O)(O)O [Morphine, morphine sulphate]
[2]
  Effect on pain scores: significantly reduced pain scores
  Time to maximal effect: 3 to 6 h
[3]; 10 min after treatment
  Corneal sensitivity expressed as pressure: 7.69 ± 2.16 grm/sq. mm
[3]; 20 min after treatment
  Corneal sensitivity expressed as pressure: 9.84 ± 1.00 grm/sq. mm
[1]; day 1
  Animals with complete healing of the cornea / total animals per group: 0/6
[1]; day 2
  Animals with complete healing of the cornea / total animals per group: 0/6
[1]; day 3
  Animals with complete healing of the cornea / total animals per group: 0/6
[1]; day 4
  Animals with complete healing of the cornea / total animals per group: 1
[1]; day 4, sulphate
  Animals with complete healing of the cornea / total animals per group: 1/6
[1]; day 5, sulphate
  Animals with complete healing of the cornea / total animals per group: 3/6
[1]; day 6
  Animals with complete healing of the cornea / total animals per group: 4/6
[1]; day 7, sulphate
  Animals with complete healing of the cornea / total animals per group: 5/6
[1]; day 8
  Animals with complete healing of the cornea / total animals per group: 5/6

## C=CCN1CC[C@]23c4c5ccc(O)c4O[C@H]2C(=O)CC[C@@]3(O)[C@H]1C5 [naloxone]
[4]
  Effect on pupil of the same eye: pupillary dilation
